Data: US4057636A, “Antihypertensive pyridylguanidine compounds” (Leo Pharmaceutical Products Ltd. A/S, priority 1974, dated 1977)

Tests used:
[1] = system: conscious spontaneously hypertensive rats; assay: Antihypertensive activity in conscious spontaneously hypertensive rats; type: in vivo, rat (spontaneously hypertensive Okamoto strain)
Protocol: Male albino rats, spontaneously hypertensive Okamoto strain, fasting 16 hours before the experiments were used. The conscious animals were restrained in a plastic cage and a cuff was secured around the tail. The cuff was connected with an electronic blood pressure recorder. The systolic blood pressure and the heart rate were measured before and 2, 4, 6, and 24 hours after the administration of compounds. The compounds were suspended or dissolved in carboxymethylcellulose 0.5%. […] There are also included, for comparison, the results obtained under the same experimental conditions with some known antihypertensive drugs, and the approximate oral LD50 in mice are stated.

[2] = in vivo; conditions: mouse
[3] = system: conscious normotensive dogs; assay: Hypotensive activity in conscious normotensive dogs; type: in vivo, dog (mongrel); conditions: 0.1 mg/kg oral
Protocol: Hypotensive activity in conscious normotensive dogs
Mongrel dogs of both sexes, fasting 16 hours before the experiment were used. […] The compounds were orally administered in gelatine capsules.

Which results are given for `CCCC(C)(C)NC(=NC#N)Nc1cccnc1` [P 1067, N"-cyano-N-(1,1-dimethylbutyl)-N'-3-pyridylcuanidine]?
BP ([1]; 0.5 mg/kg, 2 hours): 158 mm Hg; HR ([1]; 0.5 mg/kg, 2 hours): 440 beats/minute; BP ([1]; 0.5 mg/kg, 4 hours): 168 mm Hg; HR ([1]; 0.5 mg/kg, 4 hours): 413 beats/minute; BP ([1]; 0.5 mg/kg, 24 hours): 176 mm Hg; HR ([1]; 0.5 mg/kg, 24 hours): 408 beats/minute; LD50 ([2]; po): > 1000 mg/kg

For `NNc1nncc2ccccc12` [Hydralazine, reference compound], which BP ([1]; 2.0 mg/kg, 2 hours) is on record?
Its BP is 162 mm Hg.

And the HR ([1]; 2.0 mg/kg, 2 hours)?
Its HR is 425 beats/minute.

And the BP ([1]; 2.0 mg/kg, 4 hours)?
Its BP is 163 mm Hg.

What about the HR ([1]; 2.0 mg/kg, 4 hours) of the same compound?
Its HR is 413 beats/minute.

What about the BP ([1]; 2.0 mg/kg, 24 hours) of the same compound?
Its BP is 174 mm Hg.

And the HR ([1]; 2.0 mg/kg, 24 hours)?
Its HR is 379 beats/minute.

And the BP ([1]; 5.0 mg/kg, 2 hours)?
The BP was 150 mm Hg.

And the HR ([1]; 5.0 mg/kg, 2 hours)?
The HR was 405 beats/minute.

And the BP ([1]; 5.0 mg/kg, 4 hours)?
The BP was 152 mm Hg.

What about the HR ([1]; 5.0 mg/kg, 4 hours) of the same compound?
The HR was 410 beats/minute.

What about the BP ([1]; 5.0 mg/kg, 24 hours) of the same compound?
The BP was 170 mm Hg.

What about the HR ([1]; 5.0 mg/kg, 24 hours) of the same compound?
The HR was 380 beats/minute.

What about the LD50 ([2]; mice, oral, printed with (114-130)) of the same compound?
Its LD50 is 122 mg/kg.

Which results are given for `CCC(C)(CC)NC(=NC#N)Nc1cccnc1` [P 1066, N"-cyano-N-(1-ethyl-1-methylpropyl)-N'-3-pyridylguanidine]?
BP ([1]; 0.05 mg/kg, 2 hours): 155 mm Hg; HR ([1]; 0.05 mg/kg, 2 hours): 462 beats/minute; BP ([1]; 0.05 mg/kg, 4 hours): 170 mm Hg; HR ([1]; 0.05 mg/kg, 4 hours): 417 beats/minute; BP ([1]; 0.05 mg/kg, 24 hours): 178 mm Hg; HR ([1]; 0.05 mg/kg, 24 hours): 413 beats/minute; BP ([1]; 0.5 mg/kg, 2 hours): 146 mm Hg; HR ([1]; 0.5 mg/kg, 2 hours): 437 beats/minute; BP ([1]; 0.5 mg/kg, 4 hours): 143 mm Hg; HR ([1]; 0.5 mg/kg, 4 hours): 413 beats/minute; BP ([1]; 0.5 mg/kg, 24 hours): 181 mm Hg; HR ([1]; 0.5 mg/kg, 24 hours): 413 beats/minute; BP ([1]; 2.5 mg/kg, 2 hours): 113 mm Hg; HR ([1]; 2.5 mg/kg, 2 hours): 386 beats/minute; BP ([1]; 2.5 mg/kg, 4 hours): 100 mm Hg; BP ([1]; 2.5 mg/kg, 6 hours): 114 mm Hg; HR ([1]; 2.5 mg/kg, 6 hours): 375 beats/minute; BP ([1]; 2.5 mg/kg, 24 hours): 152 mm Hg; HR ([1]; 2.5 mg/kg, 24 hours): 335 beats/minute; BP ([1]; 10.0 mg/kg, 2 hours): < 100 mm Hg; BP ([1]; 10.0 mg/kg, 4 hours): < 100 mm Hg; BP ([1]; 10.0 mg/kg, 6 hours): < 100 mm Hg; BP ([1]; 10.0 mg/kg, 24 hours): 126 mm Hg; HR ([1]; 10.0 mg/kg, 24 hours): 336 beats/minute; LD50 ([2]; po, p.o. (mice), approximate): > 1000 mg/kg

For `CCC(CC)(CC)NC(=NC#N)Nc1cccnc1` [P 1068, N"-cyano-N-(1,1-diethylpropyl)-N'-3-pyridylguanidine], which BP ([1]; 0.5 mg/kg, 2 hours) is on record?
The BP was 131 mm Hg.

What about the HR ([1]; 0.5 mg/kg, 2 hours) of the same compound?
The HR was 473 beats/minute.

And the BP ([1]; 0.5 mg/kg, 4 hours)?
The BP was 146 mm Hg.

And the HR ([1]; 0.5 mg/kg, 4 hours)?
Its HR is 437 beats/minute.

What about the BP ([1]; 0.5 mg/kg, 24 hours) of the same compound?
The BP was 180 mm Hg.

What about the HR ([1]; 0.5 mg/kg, 24 hours) of the same compound?
Its HR is 383 beats/minute.

And the LD50 ([2]; po, p.o. (mice), approximate)?
Its LD50 is greater than 1000 mg/kg.

For `N=c1nc(N2CCCCC2)cc(N)n1O` [Minoxidil, 6-Amino-1,2-dihydro-1-hydroxy-2-imino-4-piperid-1-ylpyrimidine, reference compound], which BP ([1]; 0.5 mg/kg, 2 hours) is on record?
Its BP is 161 mm Hg.

What about the HR ([1]; 0.5 mg/kg, 2 hours) of the same compound?
The HR was 409 beats/minute.

What about the BP ([1]; 0.5 mg/kg, 4 hours) of the same compound?
Its BP is 153 mm Hg.

And the HR ([1]; 0.5 mg/kg, 4 hours)?
The HR was 411 beats/minute.

And the BP ([1]; 0.5 mg/kg, 24 hours)?
The BP was 167 mm Hg.

And the HR ([1]; 0.5 mg/kg, 24 hours)?
Its HR is 400 beats/minute.

And the BP ([1]; 1.0 mg/kg, 2 hours)?
Its BP is 158 mm Hg.

And the HR ([1]; 1.0 mg/kg, 2 hours)?
The HR was 431 beats/minute.

What about the BP ([1]; 1.0 mg/kg, 4 hours) of the same compound?
The BP was 146 mm Hg.

And the HR ([1]; 1.0 mg/kg, 4 hours)?
Its HR is 424 beats/minute.

What about the BP ([1]; 1.0 mg/kg, 24 hours) of the same compound?
Its BP is 169 mm Hg.

What about the HR ([1]; 1.0 mg/kg, 24 hours) of the same compound?
Its HR is 407 beats/minute.

With `CCC(C)(C)NC(=NC#N)Nc1cccnc1` [P 1075, N"-cyano-N-tert-pentyl-N'-3-pyridylguanidine] as the compound, how does the BP ([1]; 0.05 mg/kg, 2 hours) read?
Its BP is 105 mm Hg.

What about the HR ([1]; 0.05 mg/kg, 2 hours) of the same compound?
The HR was 450 beats/minute.

What about the BP ([1]; 0.05 mg/kg, 4 hours) of the same compound?
Its BP is 102 mm Hg.

And the HR ([1]; 0.05 mg/kg, 4 hours)?
The HR was 432 beats/minute.

And the BP ([1]; 0.05 mg/kg, 24 hours)?
The BP was 164 mm Hg.

And the HR ([1]; 0.05 mg/kg, 24 hours)?
The HR was 348 beats/minute.

What about the LD50 ([2]; po, p.o. (mice), approximate) of the same compound?
Its LD50 is 1000 mg/kg.

What about the BP ([3]; Dog I, 1 hour) of the same compound?
Its BP is 72 mm Hg.

And the HR ([3]; Dog I, 1 hour)?
The HR was 160 beats/minute.

And the BP ([3]; Dog I, 2 hours)?
Its BP is 75 mm Hg.

And the HR ([3]; Dog I, 2 hours)?
Its HR is 180 beats/minute.

And the BP ([3]; Dog I, 3 hours)?
The BP was 85 mm Hg.

And the HR ([3]; Dog I, 3 hours)?
The HR was 142 beats/minute.

What about the BP ([3]; Dog I, 4 hours) of the same compound?
The BP was 95 mm Hg.

What about the HR ([3]; Dog I, 4 hours) of the same compound?
Its HR is 135 beats/minute.

And the BP ([3]; Dog II, 1 hour)?
Its BP is 82 mm Hg.

What about the HR ([3]; Dog II, 1 hour) of the same compound?
The HR was 175 beats/minute.

What about the BP ([3]; Dog II, 2 hours) of the same compound?
Its BP is 74 mm Hg.

And the HR ([3]; Dog II, 2 hours)?
The HR was 185 beats/minute.

What about the BP ([3]; Dog II, 3 hours) of the same compound?
The BP was 92 mm Hg.

And the HR ([3]; Dog II, 3 hours)?
The HR was 163 beats/minute.

And the BP ([3]; Dog II, 4 hours)?
Its BP is 115 mm Hg.

What about the HR ([3]; Dog II, 4 hours) of the same compound?
Its HR is 140 beats/minute.

And the BP ([3]; Dog III, 1 hour)?
The BP was 95 mm Hg.

What about the HR ([3]; Dog III, 1 hour) of the same compound?
The HR was 185 beats/minute.

What about the BP ([3]; Dog III, 2 hours) of the same compound?
Its BP is 90 mm Hg.

And the HR ([3]; Dog III, 2 hours)?
Its HR is 175 beats/minute.

What about the BP ([3]; Dog III, 3 hours) of the same compound?
The BP was 104 mm Hg.

What about the HR ([3]; Dog III, 3 hours) of the same compound?
Its HR is 149 beats/minute.

What about the BP ([3]; Dog III, 4 hours) of the same compound?
Its BP is 110 mm Hg.

And the HR ([3]; Dog III, 4 hours)?
The HR was 140 beats/minute.
